Experiment [1] deals with Huh7 hepatocellular carcinoma cells. Put plainly: FGFR4 cell proliferation experiment, Cell Titer Glo (CTG). To be noted: Homo sapiens, Huh-7, 72 h, HuH-7 cells, 3 days; for IC50: concentration leading to absolute half growth inhibition; for EC50: concentration leading to half maximal growth inhibition. In kind it is cell-based. On the procedure: II. FGFR4 Cell Proliferation Experiment
Cell Titer Glo (CTG) experiment was used in the present invention to evaluate the functional effects of the compounds on cell proliferation. […] Compound-mediated inhibition of cell proliferation/survival was assessed by quantification of cellular ATP levels using CTG reagent (Promega, #G7573). The specific experimental procedure was as follows:
2. 10 μL of medium containing a compound concentration of 10 fold of its final test concentration was added;
3. The dose effect was evaluated by a 5-fold serial dilution of the test compound, starting from 10 μM.
4. After cells incubation for 3 days at 37° C. under 5% CO2, the effect of the inhibitor on cell proliferation was quantified after adding 50 μL of CTG and testing with luminescence.

Another experiment has as its target FGFR4 (Homo sapiens, UniProt P22455). Nature of the experiment: FGFR4 Caliper Assay (in vitro biochemical kinase analysis of FGFR4). Conditions: read-out: Enzymatic activity FGFR4 IC50. On the procedure:
I. In Vitro Biochemical Kinase Analysis of FGFR4
FGFR4 Caliper Assay was used in the present invention to determine the inhibitory activities of the compounds against FGFR4. The detailed experimental procedure was as follows.
2. A reaction system is a mixture solution of 50 mM HEPES, pH 7.5, 1 mM DTT, 0.02% Tween 20, 0.02% BSA, 0.6% DMSO, 10 mM beta glycerol phosphate and 10 μM sodium orthovanadate and 16 mM MgCl2.
3. The reaction system was incubated at 30° C. for 40 minutes.
4. The reaction was terminated by adding a stop solution (100 mM HEPES, pH 7.5, 5% DMSO, 0.1% Caliper coating reagent, 10 mM EDTA and 0.015% Brij35).
5. The culture plate with the terminated kinase reaction was transferred to the Caliper LC 3000 workstation to read the data, the phosphorylated and unphosphorylated peptides were separated by using the Caliper microfluid migration shift technique, and the analyte was transferred by allowing a constant buffer flow through the chip, the migration of the substrate peptide was monitored by the labeled fluorescent signal, and the kinase activity was calculated by using the amount of the phosphate-based peptide formed.
6. Finally, IC50 values were determined by non-linear regression analysis of percent inhibition at different compound concentrations.

Chain of FGFR4 (P22455 22-802): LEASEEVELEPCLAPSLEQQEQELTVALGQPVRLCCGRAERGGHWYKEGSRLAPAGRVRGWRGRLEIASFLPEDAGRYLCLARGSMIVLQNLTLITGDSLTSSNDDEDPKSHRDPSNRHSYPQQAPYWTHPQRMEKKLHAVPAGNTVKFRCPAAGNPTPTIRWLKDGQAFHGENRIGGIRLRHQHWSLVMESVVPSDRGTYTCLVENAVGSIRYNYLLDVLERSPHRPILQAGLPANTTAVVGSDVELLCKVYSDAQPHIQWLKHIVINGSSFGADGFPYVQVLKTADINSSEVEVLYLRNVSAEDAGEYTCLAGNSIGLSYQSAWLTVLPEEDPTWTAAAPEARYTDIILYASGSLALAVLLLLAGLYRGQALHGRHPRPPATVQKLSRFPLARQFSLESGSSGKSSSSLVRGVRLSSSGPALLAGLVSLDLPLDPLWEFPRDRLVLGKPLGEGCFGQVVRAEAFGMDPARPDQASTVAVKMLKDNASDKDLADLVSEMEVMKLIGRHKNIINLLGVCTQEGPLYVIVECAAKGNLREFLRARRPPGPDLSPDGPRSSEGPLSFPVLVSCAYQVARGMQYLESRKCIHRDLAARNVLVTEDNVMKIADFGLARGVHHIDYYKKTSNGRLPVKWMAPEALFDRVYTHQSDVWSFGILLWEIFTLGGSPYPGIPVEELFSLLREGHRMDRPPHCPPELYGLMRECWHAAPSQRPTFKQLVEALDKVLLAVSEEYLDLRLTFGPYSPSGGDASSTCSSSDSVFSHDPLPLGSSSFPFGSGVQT

Broadly, the IC50 is the concentration needed to halve the response being measured. A word on the EC50: it is the midpoint of the concentration-response curve. Lower therefore signals a more potent agent. In experiment [1], `C=CC(=O)Nc1cc(N2CCN(C)CC2)cc(C)c1Nc1cc2c(=O)n(C)c(-c3c(Cl)c(OC)cc(OC)c3Cl)nc2cn1` [Example 75, N-(2-((2-(2,6-dichloro-3,5-dimethoxyphenyl)-3-methyl-4-oxo-3,4-dihydropyrido [3,4-d]pyrimidin-6-yl)amino)-3-methyl-5-(4-methyl-piperazin-1-yl)phenyl) acrylamide] displayed an IC50 above 10000 nM and an EC50 above 10000 nM. The IC50 on FGFR4 was 247 nM.
With `C=CC(=O)Nc1cn(C)nc1Nc1ncc2cc(-c3c(Cl)c(OC)cc(OC)c3Cl)nc(NCC3CC3)c2n1` [Example 76, N-(3-((8-((cyclopropylmethyl)amino)-6-(2,6-dichloro-3,5-dimethoxyphenyl)pyrido[3,4-d]pyrimidin-2-yl)amino)-1-methyl-1H-pyrazol-4-yl)acrylamide], the IC50 came to 62.6 nM in experiment [1] and 24 nM on FGFR4. Also, in experiment [1], the EC50 was determined as 23.8 nM.
In experiment [1], `C=CC(=O)N[C@H]1CCOC[C@H]1Nc1ncc2cc(-c3c(Cl)c(OC)cc(OC)c3Cl)ncc2n1` [Example 119, N-((3S,4S)-3-((6-(2,6-dichloro-3,5-dimethoxyphenyl)pyrido[3,4-d]pyrimidin-2-yl)amino)tetrahydro-2H-pyran-4-yl)acrylamide] registered an IC50 of 457 nM and an EC50 of 78.1 nM. On FGFR4, the IC50 turned out to be 166 nM.
As for `C=CC(=O)N[C@H]1COC[C@H]1Nc1ncc2cc(-c3c(F)c(OC)cc(OC)c3F)ncc2n1` [Example 120, N-((3R,4S)-4-((6-(2,6-difluoro-3,5-dime-thoxyphenyl)pyrido[3,4-d]pyrimidin-2-yl)amino)tetrahydrofuran-3-yl)acrylamide], the IC50 in experiment [1] came out at 754 nM; at FGFR4, 303 nM. In addition, the EC50 in experiment [1] was 156 nM.
Taken in the same sequence, the figures for `C=CC(=O)N[C@H]1COC[C@H]1Nc1ncc2cc(-c3cc(OC)cc(OC)c3Cl)ncc2n1` [Example 121, N-((3R,4S)-4-((6-(2-chloro-3,5-dime-thoxyphenyl)pyrido[3,4-d]pyrimidin-2-yl)amino)tetrahydrofuran-3-yl)acrylamide] were 401 nM, 183 nM and 172 nM.
In experiment [1], `C=CC(=O)N[C@H]1COC[C@H]1Nc1cc2cnc(-c3c(Cl)c(OC)cc(OC)c3Cl)cc2cn1` [Example 124, N-((3R,4S)-4-((7-(2,6-dichloro-3,5-dime-thoxyphenyl)-2,6-naphthyridin-3-yl)amino)tetrahydrofuran-3-yl)acrylamide] yielded an IC50 of 556 nM and an EC50 of 303 nM. For the same compound, the IC50 at FGFR4 amounted to 61.6 nM.
Take `C=CC(=O)N[C@H]1COC[C@H]1Nc1cc2c(NCC3CC3)nc(-c3c(Cl)c(OC)cc(OC)c3Cl)cc2cn1` [Example 126, N-((3R,4S)-4-((5-((cyclopropylmethyl)amino)-7-(2,6-dichloro-3,5-dimethoxy-phenyl)-2,6-naphthyridin-3-yl)amino)tetrahydrofuran-3-yl)acrylamide]: the 50% inhibitory concentration (IC50) was 53.7 nM in experiment [1] and 22 nM at FGFR4. The compound further registered an EC50 in experiment [1] of 31.5 nM.
`C=CC(=O)N[C@H]1COC[C@H]1Nc1ncc2cc(-c3c(Cl)c(OC)cc(OC)c3Cl)nc(NCC3CC3)c2n1` [Example 421, N-((3R,4S)-4-((8-((cyclopropylmethyl)amino)-6-(2,6-dichloro-3,5-dimethoxyphenyl)pyrido[3,4-d]pyrimidin-2-yl)amino)tetrahydrofuran-3-yl)acrylamide]: the IC50 in experiment [1] is 10 nM; at FGFR4 it was 12.4 nM. In experiment [1], this compound showed a 50% effective concentration (EC50) of 5.4 nM.
Take `C=CC(=O)N[C@H]1COC[C@H]1Nc1ncc2cc(-c3c(Cl)c(OC)cc(OC)c3Cl)nc(NCCOC)c2n1` [Example 422, N-((3R,4S)-4-((6-(2,6-dichloro-3,5-di-methoxyphenyl)-8-((2-methoxyethyl)amino)pyrido[3,4-d]pyrimidin-2-yl)a-mino)tetrahydrofuran-3-yl)acrylamide]: the IC50 was determined as 238 nM in experiment [1] and 22.5 nM on FGFR4. Besides, in experiment [1], the response was half-maximal at 47 nM (EC50).
In experiment [1], `C=CC(=O)N[C@H]1COC[C@H]1Nc1ncc2cc(-c3c(Cl)c(OC)cc(OC)c3Cl)nc(OC)c2n1` [Example 423, N-((3R,4S)-4-((6-(2,6-dichloro-3,5-di-methoxyphenyl)-8-methoxypyrido[3,4-d]pyrimidin-2-yl)amino)tetrahydro-furan-3-yl)acrylamide] gave an IC50 of 348 nM and a 50% effective concentration (EC50) of 98 nM. Further, on FGFR4, the IC50 worked out at 31.7 nM.
Regarding `C=CC(=O)N[C@H]1COC[C@H]1Nc1ncc2cc(-c3c(F)c(OC)cc(OC)c3F)nc(NCC3CC3)c2n1` [Example 424, N-((3R,4S)-4-((8-((cyclopropylmeth-yl)amino)-6-(2,6-difluoro-3,5-dimeth-oxyphenyl)pyrido[3,4-d]pyrimidin-2-yl)amino)tetrahydrofuran-3-yl)acryl-amide], in experiment [1], the IC50 is 37.2 nM and the EC50 amounted to 18.5 nM. For the same compound, the half-maximal inhibitory concentration (IC50) on FGFR4 is 11 nM.
`C=CC(=O)N[C@H]1COC[C@H]1Nc1ncc2cc(-c3c(Cl)c(OC)cc(OC)c3Cl)nc(NCCS(=O)(=O)CC)c2n1` [Example 429, N-((3R,4S)-4-((6-(2,6-dichloro-3,5-di-methoxyphenyl)-8-((2-(ethylsulfonyl)ethyl)amino)pyrido[3,4-d]pyrimidin-2-yl)amino)tetrahydrofuran-3-yl)acryl-amide]: the IC50 in experiment [1] was determined as 184 nM; on FGFR4, 22.4 nM. Also, in experiment [1], it took 63.2 nM to reach a half-maximal effect (EC50).
The like results for `C=CC(=O)N[C@H]1COC[C@H]1Nc1ncc2cc(-c3c(Cl)c(OC)cc(OC)c3Cl)nc(NCCNS(C)(=O)=O)c2n1` [Example 430, N-((3R,4S)-4-((6-(2,6-dichloro-3,5-dimethoxyphenyl)-8-((2-(methyl-sulfonamido)ethyl)a-mino)pyrido[3,4-d]pyri-midin-2-yl)amino)tetrahydrofuran-3-yl)acrylamide] were, in that order, 93.5 nM, 19.1 nM and 32 nM.
As to `C=CC(=O)N[C@H]1COC[C@H]1Nc1ncc2cc(-c3c(Cl)c(OC)cc(OC)c3Cl)nc(NCCCN(C)C)c2n1` [Example 432, N-((3R,4S)-4-((6-(2,6-dichloro-3,5-di-methoxyphenyl)-8-((3-(dimethylami-no)propyl)amino)pyrido[3,4-d]pyrimi-din-2-yl)amino)tetrahydrofuran-3-yl) acrylamide], the IC50 in experiment [1] was determined as 934 nM; on FGFR4 it was 106 nM. For the same compound, the EC50 in experiment [1] came out at 396 nM.
In experiment [1], `C=CC(=O)N[C@H]1COC[C@H]1Nc1ncc2cc(-c3c(Cl)c(OC)cc(OC)c3Cl)nc(NC)c2n1` [Example 433, N-((3R,4S)-4-((6-(2,6-dichloro-3,5-dimethoxyphenyl)-8-(methylamino)pyrido[3,4-d]pyrimidin-2-yl)amino)tetrahydrofuran-3-yl)acrylamide] came in with an IC50 of 26.1 nM and an EC50 of 19.3 nM. Besides, at FGFR4, the IC50 came out at 7.6 nM.
On to `C=CC(=O)N[C@H]1COC[C@H]1Nc1ncc2cc(-c3c(Cl)c(OC)cc(OC)c3Cl)nc(NCC)c2n1` [Example 434], for which the results for the IC50 (in experiment [1]; on FGFR4) were 18.2 nM and 8.4 nM, respectively. The EC50 in experiment [1] is 9.6 nM.
In experiment [1], `C=CC(=O)N[C@H]1COC[C@H]1Nc1ncc2cc(-c3c(Cl)c(OC)cc(OC)c3Cl)nc(NCC(F)(F)F)c2n1` [Example 435, N-((3R,4S)-4-((6-(2,6-dichloro-3,5-di-methoxyphenyl)-8-((2,2,2-trifluoroeth-yl)amino)pyrido[3,4-d]pyrimidin-2-yl)amino)tetrahydrofuran-3-yl)acryl-amide] displayed an IC50 of 148 nM and an EC50 of 80 nM. The IC50 on FGFR4 amounted to 67 nM.
The like results for `C=CC(=O)N[C@H]1COC[C@H]1Nc1ncc2cc(-c3c(Cl)c(OC)cc(OC)c3Cl)nc(NC[C@H]3CCCO3)c2n1` [Example 438A, N-((3R,4S)-4-((6-(2,6-dichloro-3,5-di-methoxyphenyl)-8-((((R)-tetrahydro-furan-2-yl)methyl)amino)pyrido[3,4-d]pyrimidin-2-yl)amino)tetrahydro-furan-3-yl)acrylamide] were, in that order, 17.8 nM, 9.9 nM and 3.5 nM.
The like results for `C=CC(=O)N[C@H]1COC[C@H]1Nc1ncc2cc(-c3c(Cl)c(OC)cc(OC)c3Cl)nc(NC[C@@H]3CCCO3)c2n1` [Example 438B, N-((3R,4S)-4-((6-(2,6-dichloro-3,5-di-methoxyphenyl)-8-((((S)-tetrahydro-furan-2-yl)methyl)amino)pyrido[3,4-d]pyrimidin-2-yl)amino)tetrahydro-furan-3-yl)acrylamide] were, in that order, 35.1 nM, 15.8 nM and 9.1 nM.
